System: cortical markers TBR1, MEF2C, BRN2, NEUROD2
Assay: qPCR of cortical markers in miNs versus starting fibroblasts
Format: cell-based, human
Conditions: combination of MYT1L and ISX9 with miR-9/9*-124, day 30 miNs, ISX9 10 uM on PID 3, 6, 10, 14
Method: Direct Neuronal Reprogramming: Human fibroblasts were directly reprogrammed to miNs as previously described with modifications. Briefly, fibroblasts were transduced with supernatant lentivirus mix comprised of dox-inducible miR-9/9*-124, rtTA, and the transcription factor MYT1L. From PID1 to PID14 cells were treated with DAPT (2 uM) to increase neurite outgrowth and neuronal differentiation, and on PID 3, 6, 10, and 14, cells were also treated with the NEUROD1-activator ISX9 (10 uM) to push cortical fate. Fibroblasts and reprogramming cells were cultured in DMEM+10% FBS through replating at PID5. On PID6, cells were switched to Neurobasal-A with B27+(1000×) and Glutamax (500×), containing 1 μg/mL doxycycline, 200 μM dibutyl cyclic AMP, 1 mM valproic acid, 2 uM DAPT, 200 nM Ascorbic Acid, 10 ng/mL BDNF, 10 ng/mL NT-3, 1 μM retinoic acid, 10 uM ISX9, 100×RVC, and 3 μg/mL puromycin. […]
Quantitative PCR (qPCR): Total RNA was extracted from miNs using TRIzol (Invitrogen, USA) following manufacturer protocol. Reverse-transcription was performed with 150-200 ng of RNA with SuperScript IV First Strand Synthesis SuperMix (Invitrogen, USA). qPCR assay was run with SYBR Green PCR Master Mix and plate was run and analyzed on StepOnePlus Real-Time PCR System (AB Applied Biosystems, Germany). […] Expression values were calculated in Excel using the delta Ct method and Z-score calculation.

In the case of `O=C(NC1CC1)c1cc(-c2cccs2)on1` [ISX9, Isoxazole 9], the “Cortical fate (cortical marker expression by qPCR)” value is reported as “sufficient to drive the cortical fate”.
